Data reported in US11180462B2, “Microbiocidal oxadiazole derivatives” (SYNGENTA PARTICIPATIONS AG, priority 2015, dated 2021).

Legend:
Phakopsora Pachyrhizi = experiment: Fungicidal activity against Phakopsora pachyrhizi / soybean / leaf disc preventative (Asian soybean rust); format: in vivo; settings: foliar, 200 ppm in the applied formulation, soybean leaf disks, compared to untreated control leaf disks, read-out: disease control
Summary of the method: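 Preventative soybean leaf-disc test: discs on water agar sprayed with diluted formulated compound, inoculated one day later with spores on the lower surface. Held 24–36 h dark at 20°C, 75% rh, then 12 h light/day; percent disease control versus untreated discs scored 12–14 days after application.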

[1] = tested on: Glomerella lagenarium (Colletotrichum lagenarium); experiment: Fungicidal activity against Glomerella lagenarium (Colletotrichum lagenarium) liquid culture / cucumber / preventative (anthracnose); format: cell-based; settings: Colletotrichum orbiculare; 20 ppm in the applied formulation; liquid culture (PDB), growth inhibition measured photometrically after 3 to 4 days; compared to untreated control; read-out: disease control
Summary of the method: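 Photometric read-out of fungal growth after 2–7 days, expressed as percent antifungal activity versus untreated check. Cryo-stored conidia in PDB; compound at 20 ppm; dark, 24 °C, 96% RH.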

[2] = tested on: Puccinia recondita f. Sp. Tritici; experiment: Fungicidal activity against Puccinia recondita f. sp. tritici / wheat / leaf disc curative (brown rust); format: in vivo; settings: foliar, 24 h, 200 ppm in the applied formulation, wheat leaf segments, curative (applied 1 day after inoculation), compared to untreated control leaf disks, read-out: disease control
Summary of the method: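 Segments of wheat cv. Kanzler were laid on agar and inoculated with a spore suspension of the rust, then held in darkness at 19° C and 75% relative humidity. One day later the water-diluted formulated compound was applied, with incubation continued under a 12 h light/dark cycle.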

[3] = tested on: Puccinia recondita f. Sp. Tritici; experiment: Fungicidal activity against Puccinia recondita f. sp. tritici / wheat / leaf disc preventative (brown rust); format: in vivo; settings: foliar, 200 ppm in the applied formulation, wheat leaf segments, preventative, compared to untreated control leaf disks, read-out: disease control
Summary of the method: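 Preventative leaf-segment test, wheat cv. Kanzler on water agar. Spray compound at 200 ppm, inoculate with spores 1 day later; 19° C., 75% rh, 12/12 h light. Read-out: % disease control vs untreated, 7 to 9 days after application.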

CON(Cc1ccc(-c2noc(C(F)(F)F)n2)c(F)c1F)C(=O)C1CC1 [Compound 1.584, N-[[2,3-difluoro-4-[5-(trifluoromethyl)-1,2,4-oxadiazol-3-yl]phenyl]methyl]-N-methoxy-cyclopropane-carboxamide]
≥ 80%: pest or weed control at 200 ppm (Phakopsora Pachyrhizi) | inhibition of growth at 20 ppm [1] | pest or weed control at 200 ppm [2] | pest or weed control at 200 ppm [3]

CCN(Cc1ccc(-c2noc(C(F)(F)F)n2)cc1)C(=O)C1CCCO1 (centres unmarked) [Compound 1.509, N-ethyl-N-[[4-[5-(trifluoromethyl)-1,2,4-oxadiazol-3-yl]phenyl]methyl]-tetrahydrofuran-2-carboxamide]
≥ 80%: pest or weed control at 200 ppm (Phakopsora Pachyrhizi) | inhibition of growth at 20 ppm [1] | pest or weed control at 200 ppm [2] | pest or weed control at 200 ppm [3]

CON(Cc1ccc(-c2noc(C(F)(F)F)n2)cc1)C(=O)Nc1ccccc1 [Compound 3.8, 1-methoxy-3-phenyl-1-[[4-[5-(trifluoromethyl)-1,2,4-oxadiazol-3-yl]phenyl]methyl]urea]
≥ 80%: pest or weed control at 200 ppm (Phakopsora Pachyrhizi) | inhibition of growth at 20 ppm [1] | pest or weed control at 200 ppm [2] | pest or weed control at 200 ppm [3]

CCN(Cc1ccc(-c2noc(C(F)(F)F)n2)cc1)C(=O)C1CCCC1 [Compound 1.495, N-ethyl-N-[[4-[5-(trifluoromethyl)-1,2,4-oxadiazol-3-yl]phenyl]methyl]-cyclopentane-carboxamide]
≥ 80%: pest or weed control at 200 ppm (Phakopsora Pachyrhizi) | inhibition of growth at 20 ppm [1] | pest or weed control at 200 ppm [2] | pest or weed control at 200 ppm [3]

COCCN(Cc1ccc(-c2noc(C(F)(F)F)n2)cc1)C(=O)C1CC1(F)F (centres unmarked) [Compound 1.327, 2,2-difluoro-N-(2-methoxyethyl)-N-[[4-[5-(trifluoromethyl)-1,2,4-oxadiazol-3-yl]phenyl]methyl]-cyclopropane-carboxamide]
≥ 80%: pest or weed control at 200 ppm (Phakopsora Pachyrhizi) | inhibition of growth at 20 ppm [1] | pest or weed control at 200 ppm [2] | pest or weed control at 200 ppm [3]

CN(Cc1ccc(-c2noc(C(F)(F)F)n2)cc1)C(=O)COC(F)F [Compound 1.595, 2-(difluoromethoxy)-N-methyl-N-[[4-[5-(trifluoromethyl)-1,2,4-oxadiazol-3-yl]phenyl]methyl]-acetamide]
≥ 80%: pest or weed control at 200 ppm (Phakopsora Pachyrhizi) | inhibition of growth at 20 ppm [1] | pest or weed control at 200 ppm [2] | pest or weed control at 200 ppm [3]

CCCN(Cc1ccc(-c2noc(C(F)(F)F)n2)cc1)C(=O)C1CCCO1 (centres unmarked) [Compound 1.663, N-propyl-N-[[4-[5-(trifluoromethyl)-1,2,4-oxadiazol-3-yl]pheny1]methyl]-tetrahydrofuran-2-carboxamide]
≥ 80%: pest or weed control at 200 ppm (Phakopsora Pachyrhizi) | inhibition of growth at 20 ppm [1] | pest or weed control at 200 ppm [2] | pest or weed control at 200 ppm [3]

COCCN(Cc1ccc(-c2noc(C(F)(F)F)n2)cc1)C(=O)C1CCCCO1 (centres unmarked) [Compound 1.324, N-(2-methoxyethyl)-N-[[4-[5-(trifluoromethyl)-1,2,4-oxadiazol-3-yl]phenyl]methyl]-tetrahydropyran-2-carboxamide]
≥ 80%: pest or weed control at 200 ppm (Phakopsora Pachyrhizi) | inhibition of growth at 20 ppm [1] | pest or weed control at 200 ppm [2] | pest or weed control at 200 ppm [3]

CCCN(Cc1ccc(-c2noc(C(F)(F)F)n2)cc1)C(=O)CC1CC1 [Compound 1.669, 2-cyclopropyl-N-propyl-N-[[4-[5-(trifluoromethyl)-1,2,4-oxadiazol-3-yl]phenyl]methyl]-acetamide]
≥ 80%: pest or weed control at 200 ppm (Phakopsora Pachyrhizi) | inhibition of growth at 20 ppm [1] | pest or weed control at 200 ppm [2] | pest or weed control at 200 ppm [3]

CC1(C(=O)N(Cc2ccc(-c3noc(C(F)(F)F)n3)cc2)CC2CC2)CC1 [Compound 1.226, N-(cyclopropylmethyl)-1-methyl-N-[[4-[5-(trifluoromethyl)-1,2,4-oxadiazol-3-yl]phenyl]methyl]-cyctopropane-carboxamide]
≥ 80%: pest or weed control at 200 ppm (Phakopsora Pachyrhizi) | inhibition of growth at 20 ppm [1] | pest or weed control at 200 ppm [2] | pest or weed control at 200 ppm [3]

CCC(COC)C(=O)N(CCO)Cc1ccc(-c2noc(C(F)(F)F)n2)cc1 (centres unmarked) [Compound 1.723, N-(2-hydroxyethyl)-2-(methoxymethyl)-N-[[4-[5-(trifluoromethyl)-1,2,4-oxadiazol-3-yl]phenyl]methyl]-butanamide]
≥ 80%: pest or weed control at 200 ppm (Phakopsora Pachyrhizi) | inhibition of growth at 20 ppm [1] | pest or weed control at 200 ppm [2] | pest or weed control at 200 ppm [3]

C#CCCC(=O)N(Cc1ccc(-c2noc(C(F)(F)F)n2)cc1)OC [Compound 1.11, N-methoxy-N-[[4-[5-(trifluoromethyl)-1,2,4-oxadiazol-3-yl]phenyl]methyl]-pent-4-ynamide]
≥ 80%: pest or weed control at 200 ppm (Phakopsora Pachyrhizi) | inhibition of growth at 20 ppm [1] | pest or weed control at 200 ppm [2] | pest or weed control at 200 ppm [3]

CN(Cc1ccc(-c2noc(C(F)(F)F)n2)cc1)C(=O)C1(C)COC1 [Compound 1.527, N,3-dimethyl-N-[[4-[5-(trifluoromethyl)-1,2,4-oxadiazol-3-yl]phenyl]methyl]-oxetane-3-carboxamide]
≥ 80%: pest or weed control at 200 ppm (Phakopsora Pachyrhizi) | inhibition of growth at 20 ppm [1] | pest or weed control at 200 ppm [2] | pest or weed control at 200 ppm [3]

C=C(C)C(=O)N(CCOC)Cc1ccc(-c2noc(C(F)(F)F)n2)cc1 [Compound 1.346, N-(2-methoxyethyl)-2-methyl-N-[[4-[5-(trifluoromethyl)-1,2,4-oxadiazol-3-yl]phenyl]methyl]prop-2-enamide]
≥ 80%: pest or weed control at 200 ppm (Phakopsora Pachyrhizi) | inhibition of growth at 20 ppm [1] | pest or weed control at 200 ppm [2] | pest or weed control at 200 ppm [3]

O=C(ON(Cc1ccc(-c2noc(C(F)(F)F)n2)cc1)C(=O)C1CCC1)C1CCC1 [Compound 1.762, [cyclobutane-carbonyl-[[4-[5-(trifluoromethyl)-1,2,4-oxadiazol-3-yl]phenyl]methyl]-amino] cyclobutane-carboxylate]
≥ 80%: pest or weed control at 200 ppm (Phakopsora Pachyrhizi) | inhibition of growth at 20 ppm [1] | pest or weed control at 200 ppm [2] | pest or weed control at 200 ppm [3]

CCN(Cc1ccc(-c2noc(C(F)(F)F)n2)cc1)C(=O)C1CC1 [Compound 1.514, N-ethyl-N-[[4-[5-(trifluoromethyl)-1,2,4-oxadiazol-3-yl]phenyl]methyl]-cyclopropane-carboxamide]
≥ 80%: pest or weed control at 200 ppm (Phakopsora Pachyrhizi) | inhibition of growth at 20 ppm [1] | pest or weed control at 200 ppm [2] | pest or weed control at 200 ppm [3]

CC(C)N(Cc1ccc(-c2noc(C(F)(F)F)n2)cc1)C(=O)C1CCOC1 (centres unmarked) [Compound 1.673, N-isopropyl-N-[[4-[5-(trifluoromethyl)-1,2,4-oxadiazol-3-yl]phenyl]methyl]-tetrahydrofuran-3-carboxamide]
≥ 80%: pest or weed control at 200 ppm (Phakopsora Pachyrhizi) | inhibition of growth at 20 ppm [1] | pest or weed control at 200 ppm [2] | pest or weed control at 200 ppm [3]

CCON(Cc1ccc(-c2noc(C(F)(F)F)n2)cc1)C(=O)C(C)OC (centres unmarked) [Compound 1.629, N-ethoxy-2-methoxy-N-[[4-[5-(trifluoromethyl)-1,2,4-oxadiazol-3-yl]phenyl]methyl]-propanamide]
≥ 80%: pest or weed control at 200 ppm (Phakopsora Pachyrhizi) | inhibition of growth at 20 ppm [1] | pest or weed control at 200 ppm [2] | pest or weed control at 200 ppm [3]

COC(C)C(=O)N(Cc1ccc(-c2noc(C(F)(F)F)n2)cc1)CC1CC1 (centres unmarked) [Compound 1.245, N-(cyclopropylmethyl)-2-methoxy-N-[[4-[5-(trifluoromethyl)-1,2,4-oxadiazol-3-yl]phenyl]methyl]-propanamide]
≥ 80%: pest or weed control at 200 ppm (Phakopsora Pachyrhizi) | inhibition of growth at 20 ppm [1] | pest or weed control at 200 ppm [2] | pest or weed control at 200 ppm [3]

CON(C)C(=O)N(Cc1ccc(-c2noc(C(F)(F)F)n2)cc1)CC(F)(F)F [Compound 3.25, 1-methoxy-1-methyl-3-(2,2,2-trifluoroethyl)-3-[[4-[5-(trifluoromethyl)-1,2,4-oxadiazol-3-yl]phenyl]methyl]urea]
≥ 80%: pest or weed control at 200 ppm (Phakopsora Pachyrhizi) | inhibition of growth at 20 ppm [1] | pest or weed control at 200 ppm [2] | pest or weed control at 200 ppm [3]
